# Patent US20240082128A1, “COMPOSITION FOR USE IN DEGRADATION OF BIOFILM OR PREVENTION OF BIOFILM FORMATION” (Pharmiva AB, priority 2021, published 2024)
# “Also recorded” adds a separate entry of the source.
# Tests used:
# [1] = Viscosity of polymer gel used as biofilm extracellular matrix proxi (degradation); conditions: 10 g formulation added to gel, viscosity up to 24 hours
# Protocol: Three different gels were used in the study reported in Example 2 below: 2% natrosol gel, 2% alginate gel and 6% pectin gel. FeSO4 (10 mM) was added to the gels during manufacturing and acts as a catalysator and by mimic oxidation potential in biological fluids.
# The alginate and Natrosol gel were manufactured by adding sodium Alginate/Natrosol to the water solution containing FeSO4, during stirring. The pectin gel was manufactured by heating the water to 80° C. and add pectin as well as FeSO4 during stirring. After manufacture, 6 glass vials (60 mL) were filled with 40 mL of the gel.
# In general, biofilms consist of polymers consisting of polysaccharides, most commonly alginates, extracellular proteins, DNA and small amounts of surfactants and lipid. In this experiment, commercially available polymers were used as proxi (i.e. a measurement of one physical quantity (polymer) as an indicator of the value of another (biofilm)) to model the extracellular matrix of biofilm. […]
# For each test, following method was used: First, viscosity of the pure gel was measured. […] Viscosity was measured immediately before addition of the formulation or composition, immediately after addition of the formulation or composition, 10 min, 1 hour and 24 hours addition of the formulation or composition. […]
# microorganisms = conditions: 5 nM hydrogen peroxide (endogenous stress); cited from earlier work
# biofilm = conditions: for one hour; cited from earlier work
# Lactobacillus = conditions: used for treatment of bacterial vaginosis; cited from earlier work
# Gardnerella vaginalis = conditions: cited from earlier work
# Candida = conditions: cited from earlier work
# [2] = system: Candida albicans (ATCC 90028) biofilm; test: Biofilm biomass removal, crystal violet staining assay; assay type: cell-based; conditions: C. albicans
# Protocol: (§1) Gardnerella vaginalis (ATCC® 14018™) and Candida albicans (ATCC® 90028™) were grown on microtiter plates for 48 h at 37° C.±2° C. before being rinsed with PBS to remove planktonic cells. Thereafter the biofilms of the two microorganisms were exposed to the bulk cream and its components (as well as clinical comparators Metronidazole gel and Monistat 7) for 24 h at 37° C.±2° C. The efficacy of formulations in removing biofilm biomass of G. vaginalis and C. albicans was assessed using a crystal violet staining assay and the efficacy of formulations to decrease biofilm viability of G. vaginalis and C. albicans was assessed by plate count method.
# [3] = system: Gardnerella vaginalis (ATCC 14018) biofilm; test: as above; assay type: cell-based; conditions: G. vaginalis
# Protocol: as §1
# [4] = system: Candida albicans (ATCC 90028) biofilm; test: Biofilm viability, plate count method; assay type: cell-based; conditions: C. albicans; 48 h biofilm exposed 24 h at 37° C.; mean ± SD
# Protocol: as §1
# [5] = system: Gardnerella vaginalis (ATCC 14018) biofilm; test: Biofilm viability, plate count method; assay type: cell-based; conditions: G. vaginalis
# Protocol: as §1
# [6] = 48 h biofilm exposed 24 h at 37° C.
# [7] = 48 h biofilm exposed 24 h at 37° C., mean ± SD, n = 3
compound,measurement,setting,value
lactic acid [0.3% lactic acid solution with 0.7% NaOH],Decrease in viscosity of polymer gel with time (polymer degradation),"[1]; Alginate gel, FIGS. 1B, 2B",viscosity decrease was observed over time
same,Decrease in viscosity of polymer gel with time (polymer degradation),"[1]; Natrosol gel, FIGS. 1A, 2A",viscosity decrease was observed over time
OO [hydrogen peroxide],Effect on biofilm formation,microorganisms,biofilm formation was promoted
same,Concentration needed as sole agent to reduce the amount of biofilm by 85%,biofilm,0.5 % w/w
CCCCCCCCCCCC(=O)OCC(O)CO (stereo not shown) [glycerol monolaurate],Influence on Lactobacillus count,Lactobacillus,does not influence Lactobacillus count
same,Inhibitory effect,Gardnerella vaginalis,inhibitory effect
same,Inhibitory effect,Candida,inhibitory effect
"OO [0.3% H2O2 aq. sol., hydrogen peroxide]",Removal of biofilm biomass (in words),"[2]; 24 hours incubation, FIG. 3A",efficiently remove biomass
same,Biofilm forming potential,[2]; [6],Medium
same,"Biofilm biomass, optical density at 570 nm",[2]; [7],0.46 ± 0.11
same,Removal of biofilm biomass (in words),"[3]; 24 hours incubation, FIG. 3B, listed as 0.3% H2O2 solution",efficiently diminish the biofilm biomass; also recorded: efficiently remove biomass
same,Biofilm forming potential,[3]; [6],Low/no
same,"Biofilm biomass, optical density at 570 nm",[3]; [7],0.27 ± 0.002
same,Biofilm viability,[4],2.90 ± 0.130 Log10 CFU/mL
same,Biofilm viability,"[5]; 48 h biofilm exposed 24 h at 37° C., mean ± SD",2.47 ± 0.119 Log10 CFU/mL
same,Decrease of biofilm viability (in words),[5]; FIG. 4B,efficiently decrease the viability
